In ChEMBL document CHEMBL3507680, “University of Dundee, Gates Library screen for HepG2 cell viability”:

Experiment: Human HepG2 cell viability assay in 384 well format
Type: toxicity, cell-based
Design: dose 125 nL, time 70.5 hour; concentration not given beside the values
Details: HepG2 cells, read-out: Inhibition

Structure (SMILES)	cytotoxicity at 70.5 h
CNc1ncc(CN(C)Cc2cc3n(n2)CCNC3)cn1	-9%
Cc1ccc(CN2CCN(Cc3ccc4nonc4c3)CC2=O)cc1	1.65%
CCOc1cc(CN2CCCC2)ccc1Oc1cccc(C#N)n1	-1.2%
COCCc1noc(CN(C)c2nc(C)cc(C)n2)n1	-9.27%
O=C(O)CCc1cc2n(n1)CCCN(C(=O)c1cc3ccccc3s1)C2	30%
CCN1CCN(CC(=O)N2CCOC(Cc3ccc(OC)cc3)C2)CC1 (stereo not given)	-16%
CC(C)N1CCC(C(=O)N(C)C(C)c2ccon2)CC1 (stereo not given)	-0.598%
Cc1c(C(C)NC2CCN(C(C)C)CC2)cnn1-c1ccc(F)cc1F (stereo not given)	-9.98%
CC(C)(C)N1CC(C(=O)N2CC(Oc3ccc(F)cc3)C2)CC1=O (stereo not given)	18.6%
Cc1oc(-c2ccsc2)nc1CN1CC[C@@H]2CCCC[C@H]2C1	13.8%
CCCN(CCOC)C(=O)c1cc(Cn2c(C)nc3ccccc32)[nH]n1	-2.8%
CCn1c(CC2CCN(S(=O)(=O)c3cccc(C)c3)CC2)nn(C)c1=O	-4.11%
CC(C)(C)c1cc2ncn(CCCN3CCCCC3CO)c(=O)c2s1 (stereo not given)	-14.7%
CC(C)Cc1ncc2c(n1)CN(C(=O)c1ccc(CN3CCCC3)o1)C2	-7.27%
CC(C)N1CCC(CC(=O)NCCc2cc(O)ncn2)CC1	-11.7%
NC(=O)C1CCCN(Cc2ccc(C(=O)Nc3cnns3)cc2)C1 (stereo not given)	5.24%
CCC[C@@H]1CN(Cc2ccccc2-c2ccco2)C[C@H]1NC(C)=O	-5.42%
CCc1nc(NC(=O)NCCc2cccc(C)n2)nn1C	-12.7%
C[C@@H]1CN(Cc2nnc(-c3cccnc3)o2)CC[C@]1(C)O	6.07%
COc1cccc(OC)c1OCCn1c(C)c(C)oc1=O	0.271%
CC[C@H]1CN(C(=O)c2cnc(CN3CCCC3)s2)CC[C@@]1(C)O	22.4%
Cc1ncsc1CCC(=O)NC1CCN(c2ccc(Cl)nn2)CC1	-13.9%
CCOc1ccccc1-c1cc2c(cc1C(N)=O)OCO2	9.52%

Structure (SMILES)	cytotoxicity at 70.5 h
CCc1cc(CN2CCC(CCC(=O)Nc3ccccc3Cl)CC2)on1	-0.0329%
CCCc1nc(C(=O)N(C)Cc2cnn(-c3cccc(OC)c3)c2)cs1	-8.69%
O=C(O)[C@@H]1CN(Cc2ccc3nsnc3c2)C[C@H]1c1ccncc1	6.98%
CCCc1c(C2CCOC(C)(C)C2)nc(N)c(C#N)c1-c1cnn(C)c1 (stereo not given)	-2.75%
CCN(Cc1noc(C)n1)C(=O)CC1C(=O)NCCN1CC(C)(C)C (stereo not given)	9.61%
O=C1Nc2ccccc2C12CCCN(Cc1ccncc1)C2 (stereo not given)	-10.6%
Cc1ccc(N2CCN(C(=O)CCc3n[nH]c(C)c3C)CC2=O)cc1	-0.118%
OCCN1CCc2[nH]nc(C(c3ccccc3)c3ccccc3)c2C1	-7.95%
CCn1cc(CN2CCCn3nc(CNC(=O)N(C)C)cc3C2)cn1	-7.73%
COc1cc2c(cc1CNC(=O)C(C)n1ccnc1C(C)C)OCCO2 (stereo not given)	-3.89%
C[C@@H]1CN(Cc2ccncc2)C[C@@]1(O)C1CC1	-11.5%
CCN(Cc1c(C)nn(C)c1C)C(=O)C1COc2ccccc2C1 (stereo not given)	-4.62%
Cc1cc(CC2COc3ccccc3C2)cnc1N (stereo not given)	-13.2%
CCC1c2cccn2CCN1C(=O)c1ccno1 (stereo not given)	-9.21%
OCc1ccc(CN2CCC(n3cc(-c4ccsc4)nn3)CC2)o1	-5.24%
CC(Cn1cccn1)NCc1csc2c1CCCC2 (stereo not given)	0.457%
CCCN1CCN(C(=O)Cc2cccnc2)[C@H]2CS(=O)(=O)C[C@H]21	11.9%
CCCc1nc(C)cc(N2CCNC(C(=O)NCc3cccnc3)C2)n1 (stereo not given)	31%
CCc1cnc(C)nc1NCCc1nc(N)cc(O)n1	-3.5%
CNc1cc(C)nc(N2CCC3(CC2)[C@H](O)C[C@@H]3OCCO)n1	-4.12%
Cc1cnn(C(C)C2CC2)c1NC(=O)c1ccco1 (stereo not given)	-3.4%
Cc1nccnc1N1Cc2cnc(CC(C)C)nc2C1	-6.3%
